The values that follow come from ChEMBL document CHEMBL1201862, “PubChem BioAssay data set” (2004).

Test systems include CAKI-1; NCI/ADR-RES; MCF7; MDA-MB-435; LOX IMVI; M14; KM12; TK-10; MDA-MB-231; T47D; ACHN; NCI-H522; SR; Malme-3M; XF498; DLD-1; DMS-114; A498; SNB-78; SK-MEL-5.
What all share (assay): NCI-60 cell line screen, 48 h

Structures can show the parent of a compound that is named as a salt.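 Test compounds were applied to cells in 96-well plates for 48 hours at 5 doses. The concentration for 50% growth inhibition is given as GI50.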 Active and inactive are the calls of the source. No stated cut-off is given here; in the data, active = GI50 up to about 1.1 µM and inactive = higher. Some results are limits rather than exact numbers.

For `COc1cc2c(cc1OC)C1Cc3cc(OC)c(OC)cc3C(C2)O1`, the GI50 is 44.9 µM (inactive) in the test on CAKI-1; > 100 µM (inactive) with NCI/ADR-RES; > 100 µM (inactive) in the test on MCF7; > 100 µM (inactive) with MDA-MB-435; > 100 µM (inactive) in the test on LOX IMVI; > 100 µM (inactive) with M14. Moreover, the GI50 was > 100 µM (inactive) in the test with KM12; > 100 µM (inactive) in the test with TK-10; 29.1 µM (inactive) with MDA-MB-231; 58.5 µM (inactive) in the test on T47D; > 100 µM (inactive) in the test with ACHN.
Turning to `Cc1cc(C)c(NC(=O)/C=C/c2ccccc2)c(C)c1`, the GI50 in the test with NCI/ADR-RES is 29.3 µM (inactive); in the test on MCF7 it was > 100 µM (inactive); in the test on MDA-MB-435, > 100 µM (inactive); with NCI-H522, 6 µM (inactive); in the test with M14 it was > 100 µM (inactive); in the test on KM12 it was > 100 µM (inactive). The results for the GI50 in the test on TK-10, with SR and in the test on ACHN were > 100 µM (inactive), 7.28 µM (inactive) and 80.2 µM (inactive), respectively.
In the case of `N#CCCN(c1ccc(/C=N/c2cccc([N+](=O)[O-])c2)cc1)S(=O)(=O)c1ccccc1`, the GI50 with Malme-3M, in the test with CAKI-1, in the test on XF498, with DLD-1, in the test on NCI-H522 and with DMS-114 was > 100 µM (inactive) each time. Besides, the GI50 is > 100 µM (inactive) in the test on M14; > 10 µM (inactive) in the test with A498; > 100 µM (inactive) in the test with KM12; > 100 µM (inactive) in the test on TK-10; > 100 µM (inactive) in the test with SR; > 100 µM (inactive) with SNB-78.
As to `O=C(N[C@H]1c2ccsc2/C(=N/O)[C@H]1O)C(F)(F)F`, the GI50 in the test on Malme-3M, in the test on CAKI-1, with NCI/ADR-RES, in the test with MCF7, in the test on MDA-MB-435 and with SK-MEL-5 was > 100 µM (inactive) in each case. Also, the GI50 was > 100 µM (inactive) in the test on LOX IMVI; > 100 µM (inactive) in the test on M14; > 100 µM (inactive) in the test with A498; > 100 µM (inactive) with TK-10; > 10 µM (inactive) in the test on MDA-MB-231; > 100 µM (inactive) in the test on T47D. Besides, the GI50 in the test with SR is > 100 µM (inactive).
As for `CSCSCC(CO)NC(=O)/C(C)=C\c1c(C)[nH]c(=O)[nH]c1=O` (stereo not given), the GI50 with Malme-3M was > 250 µM (inactive); in the test on CAKI-1, 18.3 µM (inactive); with NCI/ADR-RES, > 250 µM (inactive); in the test on XF498 it was > 64.6 µM (inactive); in the test with DLD-1, > 250 µM (inactive); in the test on MCF7 it was > 250 µM (inactive). The GI50 with NCI-H522 was > 250 µM (inactive); in the test on DMS-114, > 250 µM (inactive); with SK-MEL-5 it was > 250 µM (inactive); in the test with LOX IMVI it was > 250 µM (inactive); in the test on A498, > 250 µM (inactive); in the test on KM12 it was 200 µM (inactive). In addition, in the test on SNB-78, the GI50 was > 250 µM (inactive).
In the case of `CN1CCc2[nH]c3ccccc3c2C1`, the GI50 with Malme-3M, with CAKI-1, in the test on NCI/ADR-RES, in the test on XF498, in the test on DLD-1 and in the test with MCF7 was > 100 µM (inactive) throughout. Besides, the GI50 with NCI-H522, in the test with DMS-114, in the test on SK-MEL-5, in the test on LOX IMVI, with A498 and with KM12 was > 100 µM (inactive) each time. Further, the GI50 in the test with SNB-78 is > 100 µM (inactive).
With `CCCc1c(-c2ccccc2)[nH]c2ccccc2c1=O`, the GI50 in the test on Malme-3M was 33 µM (inactive); in the test on MCF7, 36.7 µM (inactive); with MDA-MB-435 it was 37.3 µM (inactive); with LOX IMVI it was 23.9 µM (inactive); in the test with M14 it was 36.2 µM (inactive); with A498, 29 µM (inactive). The GI50 was 27.7 µM (inactive) with KM12; 32.6 µM (inactive) in the test on TK-10; 32.2 µM (inactive) in the test with MDA-MB-231; 25.9 µM (inactive) in the test with T47D; > 100 µM (inactive) with SR; 34.8 µM (inactive) in the test with ACHN.
Consider `CCCCn1cc[n+](-c2nc3ccccc3n2C)c1`, for which the GI50 with Malme-3M, in the test with CAKI-1, in the test with DLD-1, in the test with NCI-H522, in the test on DMS-114 and in the test on SK-MEL-5 was > 100 µM (inactive) throughout. The GI50 with LOX IMVI, with M14, in the test on TK-10, in the test with SR, in the test on SNB-78 and in the test with ACHN was > 100 µM (inactive) in each case.
As for `c1ccc(Nc2nnc(-c3nsc4ccccc34)o2)cc1`, the GI50 with DMS-114, in the test with SK-MEL-5, in the test with LOX IMVI, with M14, in the test on KM12 and in the test on TK-10 was > 100 µM (inactive) in each case. Moreover, the GI50 in the test with SR is > 100 µM (inactive); in the test on SNB-78 it was 89.5 µM (inactive); in the test with ACHN it was 75.3 µM (inactive).
Turning to `CNCCC=C1c2ccccc2CCc2ccccc21` [NORTRIPTYLINE HYDROCHLORIDE], the GI50 was 15.8 µM (inactive) in the test on Malme-3M; 13.8 µM (inactive) in the test with CAKI-1; 15.7 µM (inactive) in the test on NCI/ADR-RES; 15.7 µM (inactive) in the test on MCF7; 13.5 µM (inactive) in the test on MDA-MB-435; 14.6 µM (inactive) with NCI-H522. In addition, the GI50 was 11.6 µM (inactive) with SK-MEL-5; 13.2 µM (inactive) in the test on LOX IMVI; 4.25 µM (inactive) in the test with M14; 15.4 µM (inactive) with A498; 12.2 µM (inactive) in the test with KM12; 14.8 µM (inactive) with TK-10. The GI50 was > 37 µM (inactive) in the test on MDA-MB-231, 9.23 µM (inactive) in the test with T47D, 12.1 µM (inactive) in the test on SR and 16.6 µM (inactive) in the test with ACHN.
As for `C/C(=C\c1ccccc1)C(=O)CCN1CCOCC1`, the GI50 in the test with Malme-3M is 17.5 µM (inactive); with CAKI-1 it was 18.1 µM (inactive); in the test on NCI/ADR-RES it was 21.8 µM (inactive); in the test on XF498, 18.3 µM (inactive); with DLD-1, 17.3 µM (inactive); in the test on MCF7, 7.87 µM (inactive). Moreover, the GI50 is 7.94 µM (inactive) in the test on NCI-H522; 18.7 µM (inactive) in the test on DMS-114; 33 µM (inactive) in the test on SK-MEL-5; 16.9 µM (inactive) with LOX IMVI; > 56 µM (inactive) with A498; 14.9 µM (inactive) in the test with KM12. In the test with SNB-78, the GI50 was 15.6 µM (inactive).
For the compound `C[C@]12CC[C@H]3[C@@H](CC=C4C[C@@H](O)CC[C@@]43C)[C@@H]1C/C(=C\c1ccc([N+](=O)[O-])cc1)[C@@H]2O`, the GI50 with Malme-3M was 16 µM (inactive); with CAKI-1, 13.8 µM (inactive); with NCI/ADR-RES, 12.5 µM (inactive); with MCF7, 6.71 µM (inactive); in the test with MDA-MB-435, 22.5 µM (inactive); in the test with NCI-H522, 9.98 µM (inactive). The GI50 was 6.81 µM (inactive) in the test with SK-MEL-5; 18.8 µM (inactive) in the test with LOX IMVI; 22.7 µM (inactive) in the test on M14; 15.1 µM (inactive) in the test on A498; 18.5 µM (inactive) in the test with KM12; 19.4 µM (inactive) in the test on TK-10. In addition, the GI50 in the test with MDA-MB-231 was 7.93 µM (inactive); in the test with T47D, 4.38 µM (inactive); with SR, 8.41 µM (inactive); with ACHN it was 11.6 µM (inactive).
As for `COc1ccc(/C=C2/C(=O)N(C(=O)c3ccccc3O)N=C2C)cc1`, the GI50 in the test with CAKI-1 was 0.0962 µM (active); in the test on NCI/ADR-RES, 0.984 µM (active); in the test on XF498 it was 0.3 µM (active); in the test on DLD-1, 0.0828 µM (active); in the test with MCF7, 0.617 µM (active); with MDA-MB-435 it was 0.05 µM (active). In addition, the GI50 is 0.356 µM (active) with NCI-H522; 0.117 µM (active) with DMS-114; 0.218 µM (active) in the test with SK-MEL-5; 0.28 µM (active) with LOX IMVI; 16.4 µM (inactive) in the test with M14; 0.0202 µM (active) with A498. Also, the GI50 was 6.04 µM (inactive) with TK-10; 0.126 µM (active) in the test with MDA-MB-231; 4.32 µM (inactive) with T47D; 0.232 µM (active) in the test with SR; 0.033 µM (active) in the test on SNB-78; 0.0418 µM (active) in the test on ACHN.
In the case of `CC(C)OP(=O)(OC(C)C)c1ncn(-c2ccc([N+](=O)[O-])cc2)n1`, the GI50 with Malme-3M, in the test on CAKI-1, in the test on XF498, in the test with DLD-1, with NCI-H522 and with DMS-114 was > 100 µM (inactive) in each case. For the same compound, the GI50 with SK-MEL-5, in the test with M14, with A498, in the test on KM12, in the test with TK-10 and in the test on SR was > 100 µM (inactive) throughout. For the same compound, in the test on ACHN, the GI50 was > 100 µM (inactive).
